In PubChem BioAssay (NCI):
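Values below derive from 48-hour exposures of cells grown in 96-well plates, with endpoints linearly interpolated between the two concentrations bracketing the appropriate inhibition level. Abbreviation: GI50, concentration required for 50% inhibition of growth. TGI denotes the concentration required for complete inhibition of growth.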 Where a SMILES comes first, the peptide text is derived from it. The star is where a group is joined. Cbz = O=C(OCc1ccccc1)*; NHNH2 = NN*

What was measured:
Assay in all cases: DTP human tumour cell line panel, 48 h
[1] = test system: MOLT-4 leukemia
[2] = test system: NCI-H226 lung
[3] = test system: SF-295 CNS
[4] = test system: A549 NSCLC
[5] = test system: NCI-H460 lung
[6] = test system: SK-MEL-2 melanoma
[7] = test system: HL-60(TB) leukemia
[8] = test system: MDA-N
[9] = test system: BT-549 breast
[10] = test system: T-47D breast

Structure (SMILES)	TGI [1] [µM]	TGI [2] [µM]	TGI [3] [µM]	TGI [4] [µM]	TGI [5] [µM]	TGI [6] [µM]	TGI [7] [µM]	TGI [8] [µM]	TGI [9] [µM]	TGI [10] [µM]	GI50 [7] [µM]
CCCN(CCC)c1c([N+](=O)[O-])cc(C(=O)N(CCO)CCO)cc1[N+](=O)[O-]	> 100	> 100	> 100	> 100	> 100	> 100	> 100				
NC(=Nc1cccc(Cl)c1)c1ccccc1N	> 100	> 100	> 100	> 100	> 100		> 100	> 100	> 100		
CCOC(=O)CCC(NC(=O)OCc1ccccc1)C(=O)NC(CCC(=O)OCC)C(=O)NN (stereo not given) (Cbz-Glu(OEt)-Glu(OEt)-NHNH2; configuration not given here)	> 100	> 100		> 100	> 100	> 100	> 100	> 100	> 100		
CNC(=O)OC(COC)CN1CCN(c2ccccc2C)CC1 (stereo not given)	> 10	> 10	> 10	> 10	> 10	> 10	> 10			> 10	
COc1ccc(C(=O)N/N=C/c2c(C)n(C)n(-c3ccccc3)c2=O)cc1	> 100	> 100	> 100	> 100	> 100	> 100	> 100				
S=C(N1CCN(c2cccc(Cl)c2)CC1)N1CCN(c2cccc(Cl)c2)CC1	64.1	88.4	> 100	> 100		> 100		> 100	> 100	> 100	
CC1(C)CC(=O)c2c(nc3c(ccc4ccccc43)c2-c2ccc(NC(=O)CCCCC(=O)Nc3ccc(-c4c5c(nc6c4ccc4ccccc46)CC(C)(C)CC5=O)cc3)cc2)C1	55.9	54.9	41.6	> 100	91.8	92.6	77.6	68.3		> 100	
CCn1c(=O)c2nc(SC)sc2n(-c2ccccc2)c1=O	> 100	> 100	> 100	> 100	> 100	> 100	> 100	> 100		> 100	
NC(Cc1ncccn1)C(=O)O (stereo not given)	> 100	> 100	> 100	> 100	> 100	> 100		> 100	> 100	> 100	
N#Cc1c(-c2ccc(Cl)cc2)c2c(N=Nc3c(O)ccc4ccccc34)[nH]nc2[nH]c1=O	1.34	1.93	1.18	2.3	0.851	0.943		2.08	0.619		
O=S(=O)(O)c1ccc2c(N=Nc3ccc(Cl)cc3)c(O)ccc2c1	> 100		> 100	> 100		> 100		> 100	> 100	> 100	
CC(C)(C)OC(=O)Cn1ncn(NC(=O)Cc2ccccc2)c1=O	> 10	> 10	> 10	> 10	> 10			> 10	> 10	> 10	
CC1C2=C(CCCC2=O)N(c2ccc(Cl)cc2)C2=C1C(=O)CCC2	> 100	> 100		> 100	> 100		> 100		> 100		
CN(C)c1cccc2c1C(=O)C=CC21CCc2ccc(N(C)C)c3c(N(C)C)ccc1c23 (stereo not given)	47	33	43.1	42.3	28.7		27.3	28.6		> 100	
CCCC1(CCC)c2cc(/C=N\O)ccc2-c2ccc(-c3ccc(C(C)(C)C)cc3)cc21	60.9		> 100	> 100	> 100	99.3	51.7	> 100		> 100	
Cc1ccc2[nH]c3[nH]c(=S)[nH]c(=O)c3c2c1	> 100	> 100	> 100	> 100		> 100	> 100	> 100	> 100	> 100	
O=C(OC/C=C1C=C(OC(=O)c2ccccc2)/C(=N/N(C(=O)c2ccccc2)c2ccccc2)O\1)c1ccccc1	14	54.1	21.4	22.6	20	27	2.29				< 0.01
CCOC(=O)c1c(N2CCCC2)ncn(C)c1=S	> 100	> 100	> 100	> 100	> 100	> 100	> 100			> 100	
COc1ccc(C2C3CCCC(C3=O)C(c3ccc(OC)cc3)N2N=O)cc1 (stereo not given)	> 61.6	61.6	45.8	> 88.2	42.2	45.1	> 64				
